Experimental data: US9139616B2, “Isolation, identification, and uses of antifungal compounds” (priority 2010, dated 2015)
≈ marks a conversion by molar mass, not a printed value. Numbered stars: 1 amine (or outer) side, 2 acyl side, 3 side chain; on linkers, the order of the positions; unused ones are H or OH. Bridge positions count the residues as written; N and C are the ends. Square brackets hold non-standard residues; d marks the D form. Peptide text beside a SMILES is read from it. ξ: configuration not given here. X1 = CCCCCCCCCCCC(O[C@H]1OC[C@H](O)[C@@H](O)[C@@H]1O)C(O)C(O)CC(CC(=O)[*:1])N[*:2]; X2 = CCCCCCCCCCCC(O)C(O)C(O)CC(CC(=O)[*:2])N[*:1]; Asn(3S-OH) = NC(=O)[C@@H](O)[C@H](N)C(=O)O; ξTyr(βOH) = NC(C(=O)O)C(O)c1ccc(O)cc1

Assays:
Test in all cases: Microtitre 2-fold serial dilution MIC assay
Type in all cases: cell-based
Saccharomyces cerevisiae = conditions: S. cerevisiae; 30° C., 4 days, turbidity
Protocol: Anti-fungal activity for the present compounds was determined using microtitre format. Microtitre plates (96 wells: rows A-H, columns 1-12) were filled by the following protocol to give 2-fold serial dilutions of each of Bk-1229 and Bk-1097. Samples of Bk-1229 and Bk-1097 were dissolved in 1/10-strength BHIB containing 0.1% (w/v) dimethylsulfoxide (DMSO). Aliquots (50 μL) of 1/10-strength BHIB containing 0.1 (w/v) % DMSO (pH 7.4) were added to all wells except those in column 1. The wells in column 1 received 100 μL of the solutions of Bk-1229 or Bk-1097 and 50 μL was removed and mixed with the medium in the second well. This process was repeated through well 11, at which point an aliquot (50 μL) was removed and discarded. Well 12 was the blank (positive growth) control, BHIB+DMSO only. The test microorganisms employed in this example were Saccharomyces cerevisiae, Candida albicans, and Aspergillus niger, which were obtained from the Virginia Tech Microbiology Culture Collection. Cells of S. cerevisiae and C. albicans were grown in sterile 1/10-strength Brain Heart Infusion Broth (BHIB) and incubated at 30° C. for 18 h. Cells were counted as colony forming units on 1/10-strength BHIB agar. Spore suspensions of A. niger were prepared from lawns of sporulating colonies on 1/10-strength BHIB agar. The number of spores was determined by counting spores microscopically in a Petroff-Hauser counting chamber. The resulting culture or spore suspensions were diluted to 10^5 cells or spores/mL. Following the preparation of the dilution series, 50 μL of microbial inocula (10^5/mL) were added to each well in a row. The concentration of Bk-1229 and Bk-1097 ranged from 50 to 0.05 μg/mL. After the plates were incubated at 30° C. for 4 days, measurement of minimal inhibitory concentration (MIC) results were read by comparing the turbidity (due to microbial growth) of each test well to the positive control wells. The measured MICs for each of burkholdines are summarized as follow: […]

Candida albicans = conditions: C. albicans; 30° C., 4 days, turbidity
Aspergillus niger = conditions: A. niger; 30° C., 4 days, turbidity

Row | SMILES | MIC (Saccharomyces cerevisiae) [µg/mL] | MIC (Candida albicans) [µg/mL] | MIC (Aspergillus niger) [µg/mL]
1 | CCCCCCCCCCCC(O)C(O)C(O)CC1CC(=O)N[C@H](CO)C(=O)NC(C(O)c2ccc(O)cc2)C(=O)N[C@H](CC(N)=O)C(=O)NCC(=O)N[C@@H](CC(N)=O)C(=O)N[C@@H](CO)C(=O)N[C@@H]([C@H](O)C(N)=O)C(=O)N1 (stereo partly drawn) [Bk-1097 (2), burkholdine 1097] (cyclo(GNS[Asn(3S-OH)][X2][dS][ξTyr(βOH)][dN])) | 1.6 (≈ 1.46 µM) | 12.5 (≈ 11.4 µM) | 1.6 (≈ 1.46 µM)
2 | CCCCCCCCCCCC(O[C@H]1OC[C@H](O)[C@@H](O)[C@@H]1O)C(O)C(O)CC1CC(=O)N[C@H](CO)C(=O)NC(C(O)c2ccc(O)cc2)C(=O)N[C@H](CC(N)=O)C(=O)NCC(=O)N[C@@H](CC(N)=O)C(=O)N[C@@H](CO)C(=O)N[C@@H]([C@H](O)C(N)=O)C(=O)N1 (stereo partly drawn) [Bk-1229 (1), burkholdine 1229] ([dS][ξTyr(βOH)][dN]GNS[Asn(3S-OH)]; linker N-C via X1) | 0.4 (≈ 0.325 µM) | 12.5 (≈ 10.2 µM) | 12.5 (≈ 10.2 µM)
3 | C[C@@H]1[C@H](O)[C@@H](C)/C=C/C=C/C=C/C=C/C=C/C=C/C=C/[C@H](O[C@@H]2O[C@H](C)[C@@H](O)[C@H](N)[C@@H]2O)C[C@@H]2O[C@](O)(C[C@@H](O)C[C@@H](O)[C@H](O)CC[C@@H](O)C[C@@H](O)CC(=O)O[C@H]1C)C[C@H](O)[C@H]2C(=O)O [Amphetericin B, reference compound] | 25 (≈ 27.1 µM) | 25 (≈ 27.1 µM) | 25 (≈ 27.1 µM)
